This note sets out measurements from BindingDB's records for doi:10.1016/s0960-894x(03)00205-1 (Abbott Laboratories, 2003).

A short description of this test: Potassium channel opening activity in vitro using LtK cells transfected with Kir6.2/SUR2B exon 17.

`O=C(Nc1c(C(O)(C(F)(F)F)C(F)(F)F)ccc2ccccc12)c1ccc(Cl)c(Cl)c1` [3,4-Dichloro-N-[2-(2,2,2-trifluoro-1-hydroxy-1-trifluoromethyl-ethyl)-naphthalen-1-yl]-benzamide]: a half-maximal response (EC50) required 0.194 µM. To `C/C=C/C(=O)Nc1c(C(O)(C(F)(F)F)C(F)(F)F)ccc2ccccc12` [But-2-enoic acid [2-(2,2,2-trifluoro-1-hydroxy-1-trifluoromethyl-ethyl)-naphthalen-1-yl]-amide] belongs 0.072 µM. To `O=C(CC1CCCC1)Nc1c(C(O)(C(F)(F)F)C(F)(F)F)ccc2ccccc12` [2-Cyclopentyl-N-[2-(2,2,2-trifluoro-1-hydroxy-1-trifluoromethyl-ethyl)-naphthalen-1-yl]-acetamide] belongs 0.081 µM. To `O=C(Nc1c(C(O)(C(F)(F)F)C(F)(F)F)ccc2ccccc12)C1CCCC1` [Cyclopentanecarboxylic acid [2-(2,2,2-trifluoro-1-hydroxy-1-trifluoromethyl-ethyl)-naphthalen-1-yl]-amide] belongs 0.495 µM; to `Cc1ccc(C(=O)Nc2c(C(O)(C(F)(F)F)C(F)(F)F)ccc3ccccc23)cc1` [4-Methyl-N-[2-(2,2,2-trifluoro-1-hydroxy-1-trifluoromethyl-ethyl)-naphthalen-1-yl]-benzamide], 0.076 µM.

In the case of `CCC(CC)C(=O)Nc1c(C(O)(C(F)(F)F)C(F)(F)F)ccc2ccccc12` [2-Ethyl-N-[2-(2,2,2-trifluoro-1-hydroxy-1-trifluoromethyl-ethyl)-naphthalen-1-yl]-butyramide], the midpoint of the response, the EC50, lay at 4.34 µM. The figure for `Cc1cccc(C(=O)Nc2c(C(O)(C(F)(F)F)C(F)(F)F)ccc3ccccc23)c1` [3-Methyl-N-[2-(2,2,2-trifluoro-1-hydroxy-1-trifluoromethyl-ethyl)-naphthalen-1-yl]-benzamide] is 0.023 µM; for `O=C(Nc1c(C(O)(C(F)(F)F)C(F)(F)F)ccc2ccccc12)C1CC1` [Cyclopropanecarboxylic acid [2-(2,2,2-trifluoro-1-hydroxy-1-trifluoromethyl-ethyl)-naphthalen-1-yl]-amide] it is 0.751 µM.
